# Test results reported in PMC7072517 (Biomolecules, 2020).
# What was measured:
# [1] = biological target: T1, soluble epoxide hydrolase (sEH) (Homo sapiens, UniProt P34913); details: cited from earlier work
# T1 construct: purchased Cayman (Ann Arbor, MI, USA) 10011669
# T1 sequence (P34913 1-555): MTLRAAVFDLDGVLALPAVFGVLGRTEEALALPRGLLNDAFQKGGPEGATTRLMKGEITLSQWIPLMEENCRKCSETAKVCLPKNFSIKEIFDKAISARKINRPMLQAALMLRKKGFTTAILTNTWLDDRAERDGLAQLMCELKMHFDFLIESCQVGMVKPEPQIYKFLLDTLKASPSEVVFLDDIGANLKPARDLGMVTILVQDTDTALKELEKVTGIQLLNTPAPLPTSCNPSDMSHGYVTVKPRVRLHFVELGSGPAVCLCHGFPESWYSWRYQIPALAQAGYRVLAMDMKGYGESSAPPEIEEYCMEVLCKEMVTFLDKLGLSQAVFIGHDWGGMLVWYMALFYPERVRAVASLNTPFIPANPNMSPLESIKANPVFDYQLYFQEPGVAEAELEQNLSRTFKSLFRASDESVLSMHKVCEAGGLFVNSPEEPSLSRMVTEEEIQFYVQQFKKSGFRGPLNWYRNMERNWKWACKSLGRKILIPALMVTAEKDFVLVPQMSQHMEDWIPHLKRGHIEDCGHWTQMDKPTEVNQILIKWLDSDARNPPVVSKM
# [2] = biological target: T1, soluble epoxide hydrolase (sEH); assay: sEH enzyme kinetics (Lineweaver–Burk and Dixon plots); assay type: biochemical; details: for Binding Mode (inhibition type): Lineweaver–Burk plot, substrate 1–12.5 µM
# Experimental: (§1) sEH (130 µL, ~16 ng/mL) in 25 mM bis-Tris-HCl buffer (pH 7.0) containing 0.1% BSA and 20 µL of compound in MeOH was mixed in a 96-well plate, followed by the addition of 50 µL buffer containing 5 µM PHOME. The reactions were carried out at 37°C for 40 min. The inhibitory ratio was calculated according to the following equations: Inhibitory activityrate (%) = [[…]] × 100(1) where ΔC andΔS represent the intensity of control and inhibitor after 40 min, respectively. y = y0 + [(a × x)/(b + x)](2) where y0 is the minimum value on the y-axis, a denotes the difference between maximum and minimum values, and b refers to the x value at 50%.
# The inverse of these concentrations and v0 values were used for the Lineweaver–Burk plot. […] Furthermore, the Dixon plot is represented by the modified Lineweaver–Burk plot.
# [3] = biological target: T1, soluble epoxide hydrolase (sEH); assay: sEH inhibition assay (PHOME substrate, fluorescence); assay type: biochemical; details: 5 µM PHOME, 37°C, 40 min, pH 7.0; n = 3; read-out: IC50, inhibitory activity on sEH (converted)
# Experimental: as §1, with “The” for “sEH (130 µL, ~16 ng/mL) in 25 mM bis-Tris-HCl buffer (pH 7.0) containing 0.1% BSA and 20 µL of compound in MeOH was mixed in a 96-well plate, followed by the addition of 50 µL buffer containing 5 µM PHOME. The”
# [4] = design: method as in PMID 19794443; details: cited from earlier work
smiles,measurement,setting,value
O=c1cc(-c2ccc(O)cc2)oc2cc(O)cc(O)c12 [apigenin],inhibition type on sEH,[1],non-competitive
O=c1c(O[C@@H]2O[C@H](CO)[C@H](O)[C@H](O)[C@H]2O)c(-c2ccc(O)c(O)c2)oc2cc(O)cc(O)c12 [quercetin-3-O-β-D-galactoside],inhibition type on sEH,[1],non-competitive
"COc1cc(O)c2c(=O)c(OC)c(-c3ccc(O[C@@H]4O[C@H](CO)[C@@H](O)[C@H](O)[C@H]4O[C@@H]4OCC(O)(CO)[C@H]4O)c(OC)c3)oc2c1 (stereo partly drawn) [3,7,3′-tri-O-methylquercetin-4′-O-β-D-apiofuranosyl-(1→2)-O-β-D-glucopyranoside]",inhibition type on sEH,[1],non-competitive
O=c1c(O)c(-c2ccc(O)cc2)oc2cc(O)cc(O)c12 [kaempferol],inhibition type on sEH,[1],non-competitive
"O=c1cc(-c2ccc(O)c(O)c2)oc2cc(O[C@@H]3O[C@H](CO)[C@@H](O)[C@H](O)[C@H]3O)cc(O)c12 [compound 2, luteolin-7-O-glucopyranoside]",Ki,[2]; Dixon plot,26.5 µM
same,Binding Mode (inhibition type),[2],Non-competitive type
same,IC50,[3],32.1 µM
"COc1cc(-c2cc(=O)c3c(O)cc(O)cc3o2)ccc1O [compound 1, chrysoeriol]",Binding Mode (inhibition type),[2],Non-competitive type
"O=C(O)CCCCCCCCCCCNC(=O)NC12CC3CC(CC(C3)C1)C2 [AUDA, 12-(3-adamantan-1-yl-ureido)dodecanoic acid]",solubility,[4],low
